Values quoted from earlier work in PMC7395068, “The evolution of strategies to minimise the risk of human drug-induced liver injury (DILI) in drug discovery and development” (Archives of Toxicology, 2020).
Like-named read-outs stand apart in the source and are kept apart here.

Assays:
[1] = cited from earlier work
[2] = tested on: primary human hepatocytes, NIH3T3 fibroblasts, BSEP, CYP3A4; details: In vitro Assay; ref Schadt 2015; cited from earlier work
rBsep = details: cited from earlier work
[3] = tested on: THLE-Null and THLE-3A4 cells; details: In vitro Assay; ref Gustafsson 2014; cited from earlier work
[4] = tested on: HepG2 cells, primary human hepatocytes; details: In vitro Assay; ref Garside 2014; cited from earlier work
PHH spheroids = details: In vitro Assay; ref Vorrink 2018; cited from earlier work
HepG2 cells [5] = details: In vitro Assay; ref O'Brien 2006; cited from earlier work
human hepatocytes = details: In vitro Assay; ref Xu 2008; cited from earlier work
[6] = ref Chen 2016; cited from earlier work
[7] = tested on: isolated mouse liver mitochondria; details: In vitro Assay; ref Porceddu 2012; cited from earlier work
PHH = details: In vitro Assay; ref Proctor 2017; cited from earlier work
hLiMTs = details: In vitro Assay; ref Proctor 2017; cited from earlier work
HepG2 cells [8] = details: In vitro Assay; ref Persson 2013; cited from earlier work
[9] = In vitro Assay, ref Dawson 2012

SMILES	In vivo DILI ([1]; ref Dawson 2012)	In vivo DILI ([1]; ref Garside 2014)	In vivo DILI ([1]; ref Gustafsson 2014)	Inhibition of rBsep cutoff<1& cmax u>.2 (rBsep; [9])	Inhibition of rBsep cutoff<3 (rBsep; [9])	THLE-Null [3]	THLE-Null/3A4 [3]	Cluster 1-6 +VE Assay [4]	hLiMTs ATP <20 x Cmax (PHH spheroids)	In vivo DILI ([1]; ref Vorrink 2018)	Structural based (HCI) (human hepatocytes)	further results
O=C(O)[C@H]1/C(=C/CO)O[C@@H]2CC(=O)N21 [clavulanate]	+VE	+VE	+VE	-VE	-VE	-VE	-VE	-VE				In vivo DILI ([1]; […]): -VE; In vivo DILI ([1]; ref Schadt 2015): +VE; Cellular toxicity (3T3 cells) [2]: -VE; Combined Assay [2]: -VE; GSH adduct HML [2]: -VE; Hepatocyte cellular toxicity [2]: -VE; MitoTox 3T3 [2]: -VE; TDI CYP3A4 [2]: -VE; hBSEP inhibition [2]: -VE
CC(=O)Nc1ccc(OCC(O)CNC(C)C)cc1 (stereo not drawn) [practolol]				-VE	-VE	-VE		-VE	-VE			
CN(C)CCN(Cc1cccs1)c1ccccn1 [methapyrilene]	-VE	-VE	-VE			-VE		-VE	-VE	-VE		In vivo DILI ([1]; ref O'Brien 2006): +VE; Structural based (HCI) (HepG2 cells [5]): +VE
CC(=O)O[C@H]1C[C@@]2(C)[C@@H](C[C@@H](O)[C@H]3[C@@]4(C)CC[C@@H](O)[C@@H](C)[C@@H]4CC[C@@]32C)/C1=C(\CCC=C(C)C)C(=O)O [fusidic acid]				+VE	+VE	+VE		-VE				
Nc1ccc(S(=O)(=O)c2ccc(N)cc2)cc1 [dapsone]	+VE	+VE	+VE	-VE	-VE			+VE			-VE	In vivo DILI ([1]; […]): +VE; In vivo DILI ([1]; ref Khetani 2012): +VE; In vivo DILI ([1]; ref Porceddu 2012): +VE; In vivo DILI ([1]; ref Xu 2008): +VE; DILI +VE (5-8), DILI -VE (-4) [6]: +VE; DILI severity category [6]: vLess-DILI-Concern; in vitro data EC2<=1x Cmax [7]: +VE; in vitro data EC20<=2uM [7]: -VE
CNC(=O)Oc1ccc2c(c1)[C@]1(C)CCN(C)[C@@H]1N2C [physostigmine]	-VE	-VE	-VE		-VE	-VE	-VE	-VE		-VE		DILI +VE (5-8), DILI -VE (-4) [6]: -VE; DILI severity category [6]: vNo-DILI-Concern; Inhibition of rBsep cutoff<1& cmax u>.2 (rBsep): -VE
CN(CCOc1ccc(CC2SC(=O)NC2=O)cc1)c1ccccn1 (stereo not drawn) [rosiglitazone]	+VE	+VE	+VE	-VE	+VE			+VE	-VE	-VE	-VE	In vivo DILI ([1]; […]): -VE; In vivo DILI ([1]; ref Aleo 2019): +VE; In vivo DILI ([1]; ref O'Brien 2006): -VE; In vivo DILI ([1]; ref Proctor 2017): +VE; In vivo DILI ([1]; ref Schadt 2015): +VE; In vivo DILI ([1]; ref Williams 2019): +VE; In vivo DILI ([1]; ref Xu 2008): -VE; DILI +VE (5-8), DILI -VE (-4) [6]: +VE; DILI severity category [6]: vLess-DILI-Concern; Structural based (HCI) (HepG2 cells [5]): -VE; PHH ATP <100uM (PHH): -VE; hLiMTs ATP <100uM (hLiMTs): +VE (IC50 threshold of 100 µM)
Cc1ccc(S(=O)(=O)NC(=O)NN2CC3CCCC3C2)cc1 (stereo not drawn) [gliclazide]	+VE	+VE	+VE	-VE	-VE	-VE	-VE	-VE			-VE	In vivo DILI ([1]; ref Xu 2008): -VE
CCCCNC(=O)NS(=O)(=O)c1ccc(C)cc1 [tolbutamide, reference compound]				-VE	-VE			+VE				Structural based (HCI) (HepG2 cells [5]): +VE
CCCCNc1cc(C(=O)O)cc(S(N)(=O)=O)c1Oc1ccccc1 [bumetanide]								-VE	-VE		+VE	
CCCN(CCC)S(=O)(=O)c1ccc(C(=O)O)cc1 [probenecid]	+VE	+VE	+VE	-VE	-VE	-VE	-VE	+VE				In vivo DILI ([1]; ref Schadt 2015): -VE; Cellular toxicity (3T3 cells) [2]: -VE; Combined Assay [2]: -VE; GSH adduct HML [2]: -VE; Hepatocyte cellular toxicity [2]: -VE; MitoTox 3T3 [2]: -VE; TDI CYP3A4 [2]: -VE; hBSEP inhibition [2]: -VE; DILI +VE (5-8), DILI -VE (-4) [6]: -VE; DILI severity category [6]: Ambiguous DILI-concern
NNc1nnc(NN)c2ccccc12 [dihydralazine]	+VE	+VE	+VE	-VE	-VE	-VE	-VE	+VE	+VE (IC20 < 20 × Cmax.tot cut-off)	+VE		
CCN(CC)Cc1cc(Nc2ccnc3cc(Cl)ccc23)ccc1O [amodiaquine]		+VE	+VE					+VE	+VE (IC20 < 20 × Cmax.tot cut-off)	+VE		In vivo DILI ([1]; […]): +VE; In vivo DILI ([1]; ref O'Brien 2006): +VE; In vivo DILI ([1]; ref Persson 2013): +VE; In vivo DILI ([1]; ref Proctor 2017): +VE; In vivo DILI ([1]; ref Schadt 2015): +VE; In vivo DILI ([1]; ref Williams 2019): +VE; Cluser analysis (HepG2 cells [8]): +VE
O=C(O)c1cc(=O)c2c(OCC(O)COc3cccc4oc(C(=O)O)cc(=O)c34)cccc2o1 [cromolyn]				-VE	-VE			-VE			-VE	
CCN(CC)C(=S)SSC(=S)N(CC)CC [disulfiram]						+VE		+VE	+VE (IC20 < 20 × Cmax.tot cut-off)			in vitro data EC2<=1x Cmax [7]: +VE
